Patent publication US8618179B2, “Composition comprising a pesticide and an alkoxylate of 2-propylheptylamine” (BASF SE, priority 2010, dated 2013)

Tests used:
[1] = test system: winter oilseed rape (cultivar Remy); assay: Greenhouse test, glyphosate SL formulation on oilseed rape; type: in vivo; conditions: Table 2; 140 g of glyphosate/ha and 300 g of amine alkoxylate/ha
Protocol: A concentrated formulation comprising glyphosate isopropylammonium in solution in water and amine alkoxylate from Example 2 was diluted with deionized water and applied at a water application rate of 375 l/ha (140 g of glyphosate/ha and 300 g of amine alkoxylate/ha). The temperatures in the experimental period, which lasted for 3 to 4 weeks, were between 18-35° C. During this time, the experimental plants received optimum watering, with nutrients being supplied via the water used for watering. The herbicidal activity was evaluated by awarding scores to the treated plants in comparison to the untreated control plants (Table 2). […] Conversely, 0% activity means that there were no differences between treated and untreated plants. […] The application rate was 140 g of glyphosate/ha and 300 g of amine alkoxylate/ha.

[2] = Gelling upon addition of amine alkoxylate to glyphosate solution; type: physicochemical; conditions: addition at 20° C.
[3] = Storage stability of glyphosate formulation with amine alkoxylate; type: physicochemical; conditions: temperatures of from 5 to +55° C.
From the text: Also, the formulation was rainfast.

[4] = test system: Ambrosia artemisiifolia (AMBEL); assay: Greenhouse test, imazamox SL formulation on Ambrosia; type: in vivo; conditions: scored after 14 days; 10 g of imazamox/ha and 400 g of amine alkoxylate/ha
Protocol: (§1) The herbicidal activity was evaluated by awarding scores to the treated plants in comparison to the untreated control plants (Table 2). The evaluation scale ranges from 0% to 100% activity. 100% activity means the complete death at least of those parts of the plant that are above ground. Conversely, 0% activity means that there were no differences between treated and untreated plants.
(§2) The application rate was 10 g of imazamox/ha and 400 g of amine alkoxylate/ha. For comparison, a tallow fatty amine ethoxylate with 12 ethylene oxide units was used (liquid, approximately 100% content, molar mass approximately 730 g/mol (calculated from OH number), available commercially as Lutensol® FA12K from BASF SE).

Daphnia magna = assay: Water toxicity on Daphnia magna, OECD Guideline 202 part 1; type: in vivo; conditions: 48 h
[5] = test system: Chenopodium album (CHEAL); assay: Greenhouse test, imazamox SL formulation on Chenopodium; type: in vivo; conditions: scored after 14 days; 10 g of imazamox/ha and 400 g of amine alkoxylate/ha
Protocol: as §1, §2

Brachiarea multica = assay: Field trial, glyphosate SL formulation with amine alkoxylate against weed; type: in vivo; conditions: glyphosate-isopropylammonium SL spray solution with amine alkoxylate, visual estimate
Protocol: To this end, in each case 1.0 l of spray solution (see table 1) was sprayed per plot using a manual sprayer. 1.0 l of the spray solution contained 7.5 ml of an aqueous formulation of dissolved glyphosate-isopropyl-ammonium salt. To prepare this formulation, 100 ml of amine alkoxylate of example 2 were previously made up to 1.0 l with 46% strength glyphosate-isopropylammonium salt solution. Two, five and seven days after the application, the destruction of the weed was estimated visually in percent. Rain fell repeatedly in the days between application and assessment.

In the case of “2-propylheptylamine ethoxylate [2-PHamine-7 EO]”, the “Activity [%] after 14 days” value [1] is reported as 75%, the “Activity [%] after 21 days” value [1] is reported as 86% and the “Gelling upon addition to the glyphosate solution” value [2] is reported as “no gelling observed”. The “Storage stability of the formulation” value [3] was “storage-stable for at least two weeks”, the “Activity [%] AMBEL” value [4] was 80% and the EC50 (Daphnia magna) was 60 µg/mL. The “Activity [%] CHEAL” value [5] was 93%, the “Proportion [%] of weed destroyed” value (Brachiarea multica; 2 days after application) was 40% and the “Proportion [%] of weed destroyed” value (Brachiarea multica; 5 days after application) was 87.5%. The “Proportion [%] of weed destroyed” value (Brachiarea multica; 7 days after application) was 90%.
